Test results from patent US8865659B2, “Compositions for prevention or treatment of Hepatitis C virus containing ginsenoside Rg3 as an active ingredient” (priority 2012, dated 2014).

Tests used:
[1] = system: HCV CORE; assay: Western blotting against HCV CORE in JFH-1 infected Huh 7.5.1 cells; type: cell-based, Hepatitis C virus (JFH-1)
Procedure: The experiment was carried out as follow. First, 200,000 Huh 7.5.1 cells were placed in a 60×15 mm cell culture dish. Next day, Japanese Fulminant Hepatitis-1 virus (JFH-1) stock vial which was stored in −70° C. refrigerator was taken out and thawed out in a container filled with ice-water. The culture medium was collected from the cultured 60×15 mm cell culture dish, washed with 1×PBS and collected, again. 1.5 ml of JFH-1 virus solution per 60×15 mm cell culture dish each was added. The dish was shaken to cover the surface sufficiently. The dish was laid in a 5% CO2 incubator at 37° C. for 6 hours and after that, the supernatant was draw out. 1×PBS was spread on the cell surface as slow as possible and after one time washing, cells were collected. 5 ml of cell culture media was added to control and JFH-1 treatments groups. At the last step of virus-infection, 5 ml CM and each […] of ginsenosides which was set to 50 mM concentration were added to the cell culture media. After that, the cell culture media was laid in a 5% CO2 incubator at 37° C. After 72 hours, the following steps were carried out.
As described in the above Example 3, the Huh 7.5.1 cells were treated with each 100 μM of seven ginsenosides (Ro, Re, Rg1, Rg2, Rg3, Rh1, Rh2). After 72 hours, a western blotting analysis was carried out for analyzing virus suppression effect against HCV CORE and cleaved PARP.
Specific western blotting analysis carried out was as follow. First, the above described samples were prepared, mixed with a sample buffer in tubes and heated at 100° C. for 10 minutes. The tubes were cooled on ice and centrifuged. The electrophoresis was carried out with the above samples and molecular weight markers, and then they were transferred to a PVDF membrane (hydrophobic). After blocking with 5% skin milk for an hour, each primary antibody was added. After staying overnight at 4° C., washings three times for every 10 minutes were conducted, and the blocking was carried out with 5% skin milk for an hour at the room temperature. After that, each secondary antibody was added, and the reaction for an hour and washing three times for every 10 minutes were conducted. Then, the membrane was stained by 1:1 mix with detection reagents A (Luminol Enhancer solution) and B (Peroxide solution) and developed with X ray film.
To examine the dose-dependent anti-virus effect of ginsenoside Rg3, western blotting analysis against cleaved PARP and HCV CORE were carried out with the samples of ginsenosides Rg3 treatment concentration at 10 μM, 25 μM, 50 μM and 100 μM each.
To examine the dose-dependent anti-virus effect of ginsenoside Rh2, western blotting analysis against cleaved PARP and HCV CORE were carried out with the samples of ginsenosides Rh2 treatment concentration at 10 μM, 25 μM and 50 μM each. […]

[2] = target: T1, HCV NS3/4A protease (Hepatitis C virus genotype 2a, UniProt Q99IB8); assay: HCV NS3/4A protease activity (HCV Protease Assay kit, ANASPEC); type: biochemical
T1 construct: Diluted HCV NS3 protease to an appropriate concentration in assay buffer; expressed in transfected cells; host or cells: HCV replicon-containing Huh7 cells (membrane fractions)
Procedure: HCV Protease Assay kit (ANASPEC) was used to the following experiments. The components, description and quantity were as follows:
Diluted HCV protease substrate (Component A) 1:50 in assay buffer.
Diluted HCV NS3 protease to an appropriate concentration in assay buffer.
b) Mixed an equal volume of the HCV NS3 protease diluent and Pep4AK diluent. Incubated the mixture at 23-25° C. for 15 min.
The HCV replicon-containing cells (e.g. 1×10^7-10^8 Huh7 cells) grew to 90% confluence. The cells were washed with 1× phosphate-buffered saline once, and then the cells were detached by scraping. The cell pellets were harvested by centrifuging at 900×g for 10 min at 4° C. The cell pellets were resuspended with 1 mL of hypotonic buffer (10 mM Tris-HCl, pH 7.8, 10 mM NaCl), and then the cell pellets were incubated on ice for 15-20 min. The cell pellets were disrupted with 50 strokes of a tight fitting pestle in a Dounce homogenizer. The homogenate was centrifuged at 900×g for 5 min at 4° C. to remove the nuclei, which was in the pellet. […]
For kinetics reading: Immediately started measuring fluorescence intensity at Ex/Em=490 nm/520 nm continuously and recorded data every 5 min for 30 to 60 min.
For end-point reading: Incubated the reaction at room temperature for 30 to 60 minutes. […] Then measured fluorescence intensity at Ex/Em=490 nm/520 nm.

T1 sequence (Q99IB8 1031-1661): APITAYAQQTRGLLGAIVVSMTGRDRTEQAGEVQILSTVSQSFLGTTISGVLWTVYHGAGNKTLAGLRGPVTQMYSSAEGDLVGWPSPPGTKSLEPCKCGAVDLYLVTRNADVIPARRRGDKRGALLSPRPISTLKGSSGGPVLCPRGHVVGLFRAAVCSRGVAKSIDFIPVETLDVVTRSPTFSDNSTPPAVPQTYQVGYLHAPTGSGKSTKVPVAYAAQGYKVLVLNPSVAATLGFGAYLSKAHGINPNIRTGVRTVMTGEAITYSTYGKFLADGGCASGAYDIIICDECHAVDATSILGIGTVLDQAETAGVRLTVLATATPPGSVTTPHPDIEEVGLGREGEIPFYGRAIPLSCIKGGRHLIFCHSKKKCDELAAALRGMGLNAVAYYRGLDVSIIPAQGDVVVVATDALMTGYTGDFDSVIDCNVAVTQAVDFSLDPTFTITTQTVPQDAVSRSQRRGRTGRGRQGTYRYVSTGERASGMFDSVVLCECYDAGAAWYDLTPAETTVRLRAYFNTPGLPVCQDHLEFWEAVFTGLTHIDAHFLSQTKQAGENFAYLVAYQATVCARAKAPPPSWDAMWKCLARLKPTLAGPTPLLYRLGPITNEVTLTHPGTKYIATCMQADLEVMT
T1 sequence (Q99IB8 1662-1715): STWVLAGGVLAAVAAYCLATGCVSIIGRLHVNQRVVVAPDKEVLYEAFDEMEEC

CC(C)=CCC[C@](C)(O)[C@H]1CC[C@]2(C)[C@@H]1[C@H](O)C[C@@H]1[C@@]3(C)CC[C@H](O[C@@H]4O[C@H](CO)[C@@H](O)[C@H](O)[C@H]4O[C@@H]4O[C@H](CO)[C@@H](O)[C@H](O)[C@H]4O)C(C)(C)[C@@H]3CC[C@]12C [ginsenoside Rg3]
virus suppression effect (HCV CORE), dose dependence ([1]; 10 μM, 25 μM, 50 μM and 100 μM): dose-dependent manner | HCV CORE ([1]; 100 μM, 72 hours): remarkably decreased | anti-virus effect compared with interferon ([1]; comparison with PegIFN alpha-2b): same anti-virus effect as the interferon therapeutics | NS3/4 protease activity [2]: inhibited | NS3/4 protease activity, dose dependence [2]: dose-dependent manner
